Test results: US4794169A, “Pentapeptides with cell growth regulatory effects and a process for the preparation thereof” (Bio-Tech A/S, priority 1985, dated 1988)
Square brackets hold non-standard residues; d marks the D form. Peptide text beside a SMILES is read from it. pGlu = O=C1CC[C@@H](C(=O)O)N1

Test system: mouse epidermal mitotic rate
Assay: Change in mouse epidermal mitotic rate after intraperitoneal injection (Colcemid method)
Assay type: in vivo
Conditions: mouse epidermis, first three hours after i.p. injection, vs control animals from same cage
Method: In the following Table 1 in vivo results (change in mouse epidermal mitotic rate) have been described as example for four different new pentapeptides. The epidermal mitotic rate was measured for the first three hours after intraperitoneal injection of the new pentapeptides. Mitotic rate was determined by means of "Colcemid" (Demecolcine). A reduced rate was determined as a percentage in comparison with control animals from the same cage.

SMILES: NC(=O)CC[C@H](NC(=O)[C@@H]1CCC(=O)N1)C(=O)N[C@@H](CC(=O)O)C(=O)N[C@@H](CO)C(=O)NCC(=O)O [Compound 2, pGlu--Gln--Asp--Ser--Gly] ([pGlu]QDSG-OH)
- Decrease in mitotic rate % (10^-11 moles of peptide injected per mouse): 39%

SMILES: C[C@H](NC(=O)[C@H](CC(=O)O)NC(=O)[C@H](CCC(=O)O)NC(=O)[C@@H]1CCC(=O)N1)C(=O)NCC(=O)O [Compound 3, pGlu--Glu--Asp--Ala--Gly] ([pGlu]EDAG-OH)
- Decrease in mitotic rate % (10^-13 moles of peptide injected per mouse): 36%

SMILES: O=C(O)CC[C@H](NC(=O)[C@@H]1CCC(=O)N1)C(=O)N[C@@H](CC(=O)O)C(=O)N[C@@H](CO)C(=O)NCC(=O)O [Compound 1, pGlu--Glu--Asp--Ser--Gly] ([pGlu]EDSG-OH)
- Decrease in mitotic rate % (10^-11 -10^-14 moles of peptide injected per mouse): 40-44%
